Results from patent US20230322657A1, “CRYSTALLINE EDG-2 RECEPTOR ANTAGONIST AND METHODS OF MAKING” (Sanofi, priority 2020, published 2023).
Converted amounts (≈) assume the structure as drawn. Blank lines part the entries; values can stand above or below the molecule they belong to.

Assays:
[1] = Solubility of polymorphs at pH 7.4 in phosphate buffer at 25° C.; type: physicochemical; details: pH 7.4 phosphate buffer; for Solubility, concentration (equilibrium): 24 hr
Description: The solubility of the different polymorphs was determined at pH 7.4 in phosphate buffer at 25° C. Samples were analyzed as a function of time for each form to determine the equilibrium values. The residual solids from each sample were analyzed to verify that the form was unchanged during the experiment. The concentration (mg/mL) versus time data is listed below for each form: […]

[2] = Slurry stability study at room temperature (25° C.), 4 weeks, analysis by FTIR; type: physicochemical; details: for Final form after slurry: 25° C., 4 weeks, FTIR
Description: Slurry stability Maturation studies were initially conducted for the purpose of identifying the most […] stable form at room temperature (25° C.
In this set of experiments, both the individual forms and mixtures of forms were slurried in several solvents for 4 weeks, then filtered and analyzed to determine the resulting form. The first set of experiments included pure Form 1, Form 2, Form 3, and mixtures of these forms in equal amounts. The solvents included methanol, ethyl acetate, MEK, and methyl THF in order to investigate a range of solvent polarity. Additional experiments were conducted with a mixture of Form 1 and Form 4 in MEK and methanol.
Analysis was performed by FTIR due to ease of analysis for small quantities. It is interesting to note that the acid carbonyl is shifted to a different location for each polymorph. The results for the first set of experiments are listed below, comparing the starting form with the final form.

[3] = Dynamic vapor sorption (DVS); type: physicochemical; details: 25° C.
Description: Moisture sorption/desorption isotherms are recorded on a DVS-1 from SURFACE MEASUREMENT SYSTEMS. Two cycles are run at 25° C., in which the Relative Humidity (RH) is stepped from 0 to 95% and back to 0%. The data is evaluated with the software DVSWin V. 2.15.

[4] = Slurry conversion study at 40-70° C., Form 1/Form 2 1:1 mixture; type: physicochemical
Description: Slurry converstion studies were also conducted at 40-70° C. with Forms 1 and 2 to determine a transition temperature between the forms. A mixture of Form 1 and Form 2 at a (1:1 ratio) was slurried at 40° C., 50° C., 60° C., and 70° C. in two different solvents at each temperature and then analyzed to determine the direction of transformation. At 40° C. and 50° C., Methanol and MEK were used. At 60° C. and 70° C. MEK and 1-Pentanol were used.

[5] = tested on: mouse model of skin fibrosis; details: cited from earlier work
[6] = tested on: patients with diffuse cutaneous systemic sclerosis SSc (dcSSc); details: cited from earlier work
[7] = Estimated hot solubility in solvents at elevated temperature (approximately solvent boiling point); type: physicochemical
Description: Compound I was dissolved in a variety of solvents at elevated temperature (approximately at solvent boiling point) to provide solutions of Compound I with a maximum concentration of 15 mg/mL. The input material in these experiments was a mixture of polymorphic forms 1, 2, and 3.
When concentrations of Compound I was greater than 2 mg/mL, the solutions were filtered and evaporated at 25° C. to isolate the solid.

Compound: COc1ccc(C(=O)NC2(C(=O)O)Cc3ccccc3C2)cc1OCCc1cccc(C)c1 [Form 4, 2-(4-methoxy-3-(3-methylphenethoxy)benzamido)-2,3-dihydro-1H-indene-2-carboxylic acid]
Equilibrium solubility at 24 hours compared with Form 1 [1]: more than double | Solubility, concentration (equilibrium) [1]: 102 µg/mL (≈ 229 µM)

Compound: COc1ccc(C(=O)NC2(C(=O)O)Cc3ccccc3C2)cc1OCCc1cccc(C)c1 [Form 2, 2-(4-methoxy-3-(3-methylphenethoxy)benzamido)-2,3-dihydro-1H-indene-2-carboxylic acid]
Final form after slurry ([2]; Ethyl Acetate): Form 2 | Final form after slurry ([2]; MEK): Form 1 | Final form after slurry ([2]; Methanol): Form 2 | Final form after slurry ([2]; Methyl THF): Form 2 | solubility at 24 h ([1]; aqueous buffer, thermodynamic from solid, read-out: Solubility, concentration (equilibrium)): 57 µg/mL (≈ 128 µM) | 24 hour solubility, greater than Form 1 by [1]: more than 30%

Compound: COc1ccc(C(=O)NC2(C(=O)O)Cc3ccccc3C2)cc1OCCc1cccc(C)c1 [Form 1, 2-(4-methoxy-3-(3-methylphenethoxy)benzamido)-2,3-dihydro-1H-indene-2-carboxylic acid]
Final form after slurry ([2]; Ethyl Acetate): Form 1 | Final form after slurry ([2]; MEK): Form 1 | Final form after slurry ([2]; Methanol): Form 1 | Final form after slurry ([2]; Methyl THF): Form 1 | Relative stability of the crystal forms ([2]; room temperature (25° C.)): most stable form | Reversible water uptake (bound) [3]: less than 1% | Reversible water uptake ([3]; between 0 and 95% RH): ~−0.1 % w/w

Compound: COc1ccc(C(=O)NC2(C(=O)O)Cc3ccccc3C2)cc1OCCc1cccc(C)c1 [mixtures of Form 4 and Form 1]
Final form after slurry ([2]; MEK): Form 1 | Final form after slurry ([2]; Methanol): Form 1

Compound: COc1ccc(C(=O)NC2(C(=O)O)Cc3ccccc3C2)cc1OCCc1cccc(C)c1 [mixture of Form 1 and Form 2]
Form after slurry (direction of transformation) ([4]; 1-Pentanol, 60° C.): Form 2 | Form after slurry (direction of transformation) ([4]; 1-Pentanol, 70° C.): Form 2 | Form after slurry (direction of transformation) ([4]; MEK, 40° C.): Form 1 | Form after slurry (direction of transformation) ([4]; MEK, 50° C.): Form 1 | Form after slurry (direction of transformation) ([4]; MEK, 60° C.): Form 2 | Form after slurry (direction of transformation) ([4]; MEK, 70° C.): Form 2 | Form after slurry (direction of transformation) ([4]; Methanol, 40° C.): Form 1 | Form after slurry (direction of transformation) ([4]; Methanol, 50° C.): Form 1

Further lines, with some results ahead:

Final form after slurry ([2]; Ethyl Acetate): Form 1 | Final form after slurry ([2]; MEK): Form 1 | Final form after slurry ([2]; Methanol): Form 1 | Final form after slurry ([2]; Methyl THF): Form 1 | Equilibrium solubility at 24 hours compared with Form 1 [1]: more than double | Solubility, concentration (equilibrium) [1]: 97 µg/mL (≈ 218 µM)
Compound: COc1ccc(C(=O)NC2(C(=O)O)Cc3ccccc3C2)cc1OCCc1cccc(C)c1 [Form 3, 2-(4-methoxy-3-(3-methylphenethoxy)benzamido)-2,3-dihydro-1H-indene-2-carboxylic acid]

Hot Solubility (est) ([7]; 1-Butanol): >10000 µg/mL | Hot Solubility (est) ([7]; 1-Pentanol): >10000 µg/mL | Hot Solubility (est) ([7]; Acetone): >10000 µg/mL | Hot Solubility (est) ([7]; Ethanol): >10000 µg/mL | Hot Solubility (est) ([7]; Hexane): <2000 µg/mL | Hot Solubility (est) ([7]; Isobutyl Alcohol): >10000 µg/mL | Hot Solubility (est) ([7]; Methanol): >10000 µg/mL | Hot Solubility (est) ([7]; Water): <2000 µg/mL
Compound: COc1ccc(C(=O)NC2(C(=O)O)Cc3ccccc3C2)cc1OCCc1cccc(C)c1 [Compound I, 2-(4-methoxy-3-(3-methylphenethoxy)benzamido)-2,3-dihydro-1H-indene-2-carboxylic acid]
Collagen content [5]: reduced | Dermal thickening [5]: reversed | Myofibroblast differentiation [5]: significantly inhibited | Outcome measures [6]: improved | Target engagement [6]: demonstrated

Final form after slurry ([2]; MEK): Form 1 | Final form after slurry ([2]; Methanol): Form 1 | Final form after slurry ([2]; Methyl THF): Form 1
Compound: COc1ccc(C(=O)NC2(C(=O)O)Cc3ccccc3C2)cc1OCCc1cccc(C)c1 [Forms 1, 2, 3]
